# Laboratory results as given in ChEMBL document CHEMBL3351502, “Flavones: an important scaffold for medicinal chemistry” (Eur J Med Chem, 2014).
# Tests used:
# [1] = molecular target: Benzodiazepine receptors; peripheral & central; assay: Binding affinity to benzodiazepine receptor (unknown origin); type: protein assay, Homo sapiens
# [2] = Inhibition of alpha glucosidase (unknown origin); set-up: species or system Homo sapiens
# [3] = Inhibition of advanced glycation end product formation; type: physicochemical
# [4] = molecular target: 4-aminobutyrate aminotransferase, mitochondrial (Homo sapiens, UniProt P80404); assay: Inhibition of GABA transaminase (unknown origin)
# Acetylcholinesterase = Acetylcholinesterase (Homo sapiens, UniProt P22303); assay: Inhibition of AChE (unknown origin)
# Homo sapiens = species on record: Homo sapiens; assay: Inhibition of alpha glucosidase (unknown origin) at 0.5 mg/ml
# [5] = molecular target: Xanthine dehydrogenase/oxidase (Homo sapiens, UniProt P47989); assay: Inhibition of xanthine oxidase (unknown origin)
# LNCaP = assay: Downregulation of prostate specific antigen secretion in human LNCAP cells; type: functional, cell-based
# Plasmodium falciparum = assay: Antimicrobial activity against Plasmodium falciparum; type: functional, organism-based
# Rattus norvegicus = species on record: Rattus norvegicus; assay: Antiulcer activity in rat assessed as protection from indomethacin-induced gastric damage; type: functional; conditions: Stomach
# [6] = molecular target: Telomerase reverse transcriptase (Homo sapiens, UniProt O14746); assay: Inhibition of telomerase activity (unknown origin)
# [7] = molecular target: T1, Succinate-semialdehyde dehydrogenase, mitochondrial (Homo sapiens, UniProt P51649); assay: Inhibition of SSADH (unknown origin)
# T1 sequence (P51649 whole entry): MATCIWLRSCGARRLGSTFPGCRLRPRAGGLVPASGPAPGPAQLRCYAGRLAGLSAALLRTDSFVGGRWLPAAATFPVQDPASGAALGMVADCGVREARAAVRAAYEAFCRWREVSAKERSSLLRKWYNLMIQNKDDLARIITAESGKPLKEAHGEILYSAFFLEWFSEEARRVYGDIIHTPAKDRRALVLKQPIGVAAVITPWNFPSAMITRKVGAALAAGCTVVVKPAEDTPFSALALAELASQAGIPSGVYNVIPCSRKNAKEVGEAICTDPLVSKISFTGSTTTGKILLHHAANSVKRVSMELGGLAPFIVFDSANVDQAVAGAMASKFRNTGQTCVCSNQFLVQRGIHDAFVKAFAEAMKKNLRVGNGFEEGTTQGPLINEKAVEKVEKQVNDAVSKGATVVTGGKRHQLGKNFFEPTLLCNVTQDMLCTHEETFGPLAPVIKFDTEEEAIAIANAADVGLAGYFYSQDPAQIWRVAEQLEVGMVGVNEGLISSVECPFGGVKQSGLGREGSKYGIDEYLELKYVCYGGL
# [8] = molecular target: T2, Human immunodeficiency virus type 1 integrase (Human immunodeficiency virus 1, UniProt Q7ZJM1); assay: Inhibition of HIV-1 integrase terminal cleavage activity
# [9] = molecular target: T2, Human immunodeficiency virus type 1 integrase; assay: Inhibition of HIV-1 integrase strand transfer activity
# Leishmania = assay: Leishmanicidal activity against Leishmania; type: functional, organism-based
# Adenosine receptor A3 = molecular target: T3, Adenosine receptor A3 (Homo sapiens, UniProt P0DMS8); assay: Binding affinity to human adenosine A3 receptor
# T3 sequence (P0DMS8 whole entry): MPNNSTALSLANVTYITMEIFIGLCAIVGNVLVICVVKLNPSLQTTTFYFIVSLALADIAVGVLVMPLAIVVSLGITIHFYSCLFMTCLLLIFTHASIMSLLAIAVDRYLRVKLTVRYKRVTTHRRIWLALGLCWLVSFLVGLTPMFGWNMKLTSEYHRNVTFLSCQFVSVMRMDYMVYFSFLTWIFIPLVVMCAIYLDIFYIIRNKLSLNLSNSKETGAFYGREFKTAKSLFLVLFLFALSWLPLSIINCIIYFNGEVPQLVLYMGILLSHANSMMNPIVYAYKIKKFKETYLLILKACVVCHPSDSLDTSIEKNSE
# Staphylococcus aureus = assay: Antimicrobial activity against Staphylococcus aureus; type: functional
# [10] = Competitive inhibition of muscarinic receptor (unknown origin); set-up: species or system Homo sapiens
# [11] = molecular target: T4, Cystic fibrosis transmembrane conductance regulator (Homo sapiens, UniProt P13569); assay: Stimulation of CFTR (unknown origin)
# [12] = molecular target: T4, Cystic fibrosis transmembrane conductance regulator; assay: Inhibition of forskolin-stimulated CFTR (unknown origin)
# T4 sequence (P13569 whole entry): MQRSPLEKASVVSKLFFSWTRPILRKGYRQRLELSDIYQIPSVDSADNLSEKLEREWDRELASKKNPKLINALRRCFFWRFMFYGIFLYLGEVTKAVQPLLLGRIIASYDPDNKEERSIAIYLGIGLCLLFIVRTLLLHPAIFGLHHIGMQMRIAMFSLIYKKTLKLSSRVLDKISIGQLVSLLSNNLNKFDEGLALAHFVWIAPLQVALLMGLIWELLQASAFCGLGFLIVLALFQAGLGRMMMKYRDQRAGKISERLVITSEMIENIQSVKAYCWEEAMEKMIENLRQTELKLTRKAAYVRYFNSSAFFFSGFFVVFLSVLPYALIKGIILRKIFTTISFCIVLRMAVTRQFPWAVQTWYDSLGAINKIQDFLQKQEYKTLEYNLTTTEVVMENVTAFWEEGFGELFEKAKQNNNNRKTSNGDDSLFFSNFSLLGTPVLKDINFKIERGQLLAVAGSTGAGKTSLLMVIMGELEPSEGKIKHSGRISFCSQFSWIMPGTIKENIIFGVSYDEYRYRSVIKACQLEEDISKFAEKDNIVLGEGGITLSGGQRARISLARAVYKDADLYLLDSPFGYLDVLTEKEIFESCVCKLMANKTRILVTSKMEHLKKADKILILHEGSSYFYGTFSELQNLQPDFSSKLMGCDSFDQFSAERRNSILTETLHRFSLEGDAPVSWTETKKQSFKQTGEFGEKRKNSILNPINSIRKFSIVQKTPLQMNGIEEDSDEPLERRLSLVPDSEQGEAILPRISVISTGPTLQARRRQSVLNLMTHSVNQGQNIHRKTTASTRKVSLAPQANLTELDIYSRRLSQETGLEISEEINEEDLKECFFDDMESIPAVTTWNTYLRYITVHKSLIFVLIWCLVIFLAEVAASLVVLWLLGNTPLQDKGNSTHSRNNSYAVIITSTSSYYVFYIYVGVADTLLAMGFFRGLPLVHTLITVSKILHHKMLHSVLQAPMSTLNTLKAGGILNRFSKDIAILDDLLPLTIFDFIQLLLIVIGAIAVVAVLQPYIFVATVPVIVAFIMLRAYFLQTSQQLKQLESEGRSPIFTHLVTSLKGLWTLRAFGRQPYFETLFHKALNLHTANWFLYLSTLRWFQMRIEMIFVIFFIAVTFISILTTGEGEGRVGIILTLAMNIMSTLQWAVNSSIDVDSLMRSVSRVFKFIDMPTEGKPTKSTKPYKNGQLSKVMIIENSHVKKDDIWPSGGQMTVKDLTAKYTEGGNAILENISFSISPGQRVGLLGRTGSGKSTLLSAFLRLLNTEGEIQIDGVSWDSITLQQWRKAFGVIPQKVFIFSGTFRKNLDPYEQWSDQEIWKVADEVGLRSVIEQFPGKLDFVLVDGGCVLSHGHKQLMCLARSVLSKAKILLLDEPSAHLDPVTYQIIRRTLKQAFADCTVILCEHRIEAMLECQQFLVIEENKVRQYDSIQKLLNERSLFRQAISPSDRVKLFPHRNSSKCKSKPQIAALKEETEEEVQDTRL
# Xanthine dehydrogenase/oxidase, sequence (P47989 whole entry): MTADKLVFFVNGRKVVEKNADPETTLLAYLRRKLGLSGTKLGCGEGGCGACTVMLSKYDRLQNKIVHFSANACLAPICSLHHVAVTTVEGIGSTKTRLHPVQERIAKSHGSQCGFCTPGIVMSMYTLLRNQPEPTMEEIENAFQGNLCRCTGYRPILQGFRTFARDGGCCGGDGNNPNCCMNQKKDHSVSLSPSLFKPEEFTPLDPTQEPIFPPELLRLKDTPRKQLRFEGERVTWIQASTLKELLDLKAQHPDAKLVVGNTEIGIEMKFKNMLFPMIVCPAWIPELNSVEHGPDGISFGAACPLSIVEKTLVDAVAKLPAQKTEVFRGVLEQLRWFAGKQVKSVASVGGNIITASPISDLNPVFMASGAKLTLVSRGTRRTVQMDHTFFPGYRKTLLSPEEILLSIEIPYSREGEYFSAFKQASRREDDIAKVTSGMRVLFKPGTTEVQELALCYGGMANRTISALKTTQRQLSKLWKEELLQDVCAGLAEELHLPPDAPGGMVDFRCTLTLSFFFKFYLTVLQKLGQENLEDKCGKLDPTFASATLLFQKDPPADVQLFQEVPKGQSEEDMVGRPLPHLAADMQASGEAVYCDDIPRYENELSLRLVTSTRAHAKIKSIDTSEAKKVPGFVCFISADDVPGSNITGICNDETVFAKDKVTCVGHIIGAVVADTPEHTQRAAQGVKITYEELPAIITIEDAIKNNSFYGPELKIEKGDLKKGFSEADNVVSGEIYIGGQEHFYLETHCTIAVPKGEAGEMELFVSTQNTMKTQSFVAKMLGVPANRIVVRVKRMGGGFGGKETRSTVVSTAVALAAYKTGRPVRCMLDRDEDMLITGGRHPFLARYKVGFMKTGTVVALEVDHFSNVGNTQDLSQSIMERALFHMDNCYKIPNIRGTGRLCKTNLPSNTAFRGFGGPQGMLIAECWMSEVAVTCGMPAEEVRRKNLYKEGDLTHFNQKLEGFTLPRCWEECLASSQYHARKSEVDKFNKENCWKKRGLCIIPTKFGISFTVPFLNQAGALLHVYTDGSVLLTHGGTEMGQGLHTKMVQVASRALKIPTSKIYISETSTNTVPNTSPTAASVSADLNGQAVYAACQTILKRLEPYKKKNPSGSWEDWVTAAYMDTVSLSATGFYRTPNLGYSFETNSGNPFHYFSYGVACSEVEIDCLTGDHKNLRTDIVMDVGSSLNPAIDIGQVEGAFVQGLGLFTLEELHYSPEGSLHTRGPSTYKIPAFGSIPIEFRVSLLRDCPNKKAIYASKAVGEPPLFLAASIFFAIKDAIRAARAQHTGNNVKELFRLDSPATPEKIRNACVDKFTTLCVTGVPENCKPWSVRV
# T2 sequence (Q7ZJM1 whole entry): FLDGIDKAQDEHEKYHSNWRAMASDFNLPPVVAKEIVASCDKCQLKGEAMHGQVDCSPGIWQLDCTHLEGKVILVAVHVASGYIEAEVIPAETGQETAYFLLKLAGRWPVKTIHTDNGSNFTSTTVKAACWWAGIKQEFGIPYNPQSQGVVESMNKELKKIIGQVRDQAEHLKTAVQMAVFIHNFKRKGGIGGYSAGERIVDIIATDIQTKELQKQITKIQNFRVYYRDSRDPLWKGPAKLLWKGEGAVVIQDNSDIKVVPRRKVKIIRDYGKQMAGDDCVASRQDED
# Acetylcholinesterase, sequence (P22303 whole entry): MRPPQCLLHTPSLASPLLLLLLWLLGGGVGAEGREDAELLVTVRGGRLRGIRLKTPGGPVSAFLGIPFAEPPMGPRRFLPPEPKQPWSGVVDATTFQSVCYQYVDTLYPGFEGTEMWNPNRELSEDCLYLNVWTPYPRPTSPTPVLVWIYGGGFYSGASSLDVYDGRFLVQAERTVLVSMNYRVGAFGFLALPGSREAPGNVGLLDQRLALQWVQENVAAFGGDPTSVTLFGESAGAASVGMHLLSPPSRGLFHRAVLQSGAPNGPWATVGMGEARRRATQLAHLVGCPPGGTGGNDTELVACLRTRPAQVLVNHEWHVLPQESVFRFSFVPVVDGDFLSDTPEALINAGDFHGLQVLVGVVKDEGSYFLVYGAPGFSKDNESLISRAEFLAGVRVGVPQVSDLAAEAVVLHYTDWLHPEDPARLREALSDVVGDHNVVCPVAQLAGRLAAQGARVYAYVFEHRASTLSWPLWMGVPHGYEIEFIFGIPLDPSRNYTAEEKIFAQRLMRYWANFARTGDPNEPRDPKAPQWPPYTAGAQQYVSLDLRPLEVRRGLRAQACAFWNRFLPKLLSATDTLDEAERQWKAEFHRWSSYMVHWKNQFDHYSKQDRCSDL
# Telomerase reverse transcriptase, sequence (O14746 whole entry): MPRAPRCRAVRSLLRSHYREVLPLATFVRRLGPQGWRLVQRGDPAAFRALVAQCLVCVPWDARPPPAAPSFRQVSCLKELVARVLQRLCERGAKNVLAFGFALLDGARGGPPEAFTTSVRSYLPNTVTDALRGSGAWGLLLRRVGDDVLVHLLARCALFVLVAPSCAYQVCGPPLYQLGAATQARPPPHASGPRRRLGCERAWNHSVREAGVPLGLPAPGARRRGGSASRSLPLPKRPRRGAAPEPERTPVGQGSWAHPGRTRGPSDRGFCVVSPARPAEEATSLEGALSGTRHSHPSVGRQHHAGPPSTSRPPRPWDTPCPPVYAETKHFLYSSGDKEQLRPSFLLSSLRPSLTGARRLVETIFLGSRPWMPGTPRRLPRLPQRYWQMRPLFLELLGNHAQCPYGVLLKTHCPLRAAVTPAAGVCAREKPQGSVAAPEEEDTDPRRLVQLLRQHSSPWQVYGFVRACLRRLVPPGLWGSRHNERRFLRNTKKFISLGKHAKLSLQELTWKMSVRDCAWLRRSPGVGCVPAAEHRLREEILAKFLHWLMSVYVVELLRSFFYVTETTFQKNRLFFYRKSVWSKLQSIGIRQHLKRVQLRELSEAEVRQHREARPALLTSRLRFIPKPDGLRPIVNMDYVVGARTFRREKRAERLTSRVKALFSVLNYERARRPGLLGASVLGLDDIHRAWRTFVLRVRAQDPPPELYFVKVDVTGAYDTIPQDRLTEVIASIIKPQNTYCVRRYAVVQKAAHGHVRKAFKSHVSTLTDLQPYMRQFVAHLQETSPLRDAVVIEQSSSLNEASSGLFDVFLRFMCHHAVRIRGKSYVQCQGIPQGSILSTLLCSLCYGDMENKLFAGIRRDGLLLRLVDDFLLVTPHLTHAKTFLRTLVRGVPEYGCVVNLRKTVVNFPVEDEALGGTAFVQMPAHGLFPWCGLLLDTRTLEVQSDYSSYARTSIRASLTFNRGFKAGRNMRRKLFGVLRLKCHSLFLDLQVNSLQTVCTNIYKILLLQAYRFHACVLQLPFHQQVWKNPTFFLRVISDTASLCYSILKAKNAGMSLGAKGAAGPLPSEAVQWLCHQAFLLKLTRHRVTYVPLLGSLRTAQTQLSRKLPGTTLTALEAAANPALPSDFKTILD
structure (smiles),measurement,setting,value
O=c1cc(-c2cccc([N+](=O)[O-])c2)oc2ccc([N+](=O)[O-])cc12,Ki,[1],0.0015 µM
O=c1cc(-c2ccccc2)oc2cc(O)c(O)c(O)c12 [BAICALEIN],IC50,[2],52 µM
same,IC50,[3],93 µM
same,IC50,[4],12800 µM
COc1cc2oc(-c3ccc(CN4CCCC4)cc3)cc(=O)c2cc1OC,IC50,Acetylcholinesterase,0.034 µM
O=c1cc(-c2ccc(O)c(O)c2)oc2cc(O)cc(O)c12 [LUTEOLIN],inhibition,Homo sapiens,36%
same,IC50,[3],99 µM
same,Ki,[5],2.9 µM
same,IC50,LNCaP,5 µM
O=c1cc(-c2ccc(Oc3c(O)cc(O)c4c(=O)cc(-c5ccc(O)cc5)oc34)cc2)oc2cc(O)cc(O)c12 [LANAROFLAVONE],IC50,Plasmodium falciparum,0.48 µM
COc1cccc2oc(-c3ccc(F)cc3)cc(=O)c12,ED50,Rattus norvegicus,5.5 mg/kg
Cc1ccc2oc(-c3cc(Br)ccc3O)cc(=O)c2c1,Ki,[1],0.0009 µM
O=c1cc(-c2cccc([N+](=O)[O-])c2)oc2ccc(Br)cc12,Ki,[1],0.0015 µM
O=c1cc(-c2ccc(OCc3ccc(Cl)nc3)cc2)oc2cc(OCc3ccc(Cl)nc3)ccc12,IC50,[6],36.5 µM
O=C1c2c(O)cc(O)cc2O[C@H](c2ccc(O)cc2)[C@H]1[C@@H]1C(=O)c2c(O)cc(O)cc2O[C@H]1c1ccc(O)cc1,IC50,Plasmodium falciparum,7.3 µM
O=c1cc(-c2ccc(CN3CCCCC3)cc2)oc2ccccc12,IC50,Acetylcholinesterase,0.055 µM
O=c1cc(-c2ccc(O)cc2)oc2cc(O)c(O)c(O)c12 [SCUTELLAREIN],IC50,[7],7200 µM
O=c1cc(-c2ccc(O)c(O)c2)oc2cc(O[C@@H]3O[C@H](CO)[C@@H](O)[C@H](O)[C@H]3OS(=O)(=O)O)cc(O)c12,IC50,[8],2100 µM
same,IC50,[9],400 µM
O=c1cc(-c2ccc(OCCOCCN(CCOCCOc3ccc(-c4cc(=O)c5ccccc5o4)cc3)Cc3ccncc3)cc2)oc2ccccc12,IC50,Leishmania,0.13 µM
Cc1ccc(-c2oc3ccc(Cl)cc3c(=O)c2O)c(OC(C)C)c1,Ki,Adenosine receptor A3,0.56 µM
N=C(NC1CCCCC1)c1ccc2nc(-c3ccc4oc(-c5ccccc5)cc(=O)c4c3)[nH]c2c1,MIC,Staphylococcus aureus,1.56 µg/mL
COc1c(OC)c(OC)c2c(=O)c(OC)c(-c3ccc4c(c3)OCO4)oc2c1OC,Ki,[10],76.5 µM
COc1cc([C@H]2Oc3cc(-c4cc(=O)c5ccccc5o4)ccc3O[C@@H]2CO)ccc1O,MIC,Staphylococcus aureus,0.08 µg/mL
O=c1cc(-c2ccc(O)cc2)oc2cc(O)cc(O)c12 [APIGENIN],Ki,[5],0.52 µM
same,EC50,[11],9 µM
same,Ki,[12],81 µM
